Test results: PMC4402707 (Neurotherapeutics : the journal of the American Society for …, 2009)
Read-outs that look alike come from different tables or passages of the source. Where a SMILES comes first, the peptide text is derived from it. [ ]: non-standard residue; d: D form. The star is where a group is joined. Fmoc = O=C(OCC1c2ccccc2-c2ccccc21)*; Cha = N[C@@H](CC1CCCCC1)C(=O)O; AMC = Cc1cc(=O)oc2cc(N*)ccc12

Columns and labels:
[1] = system: corneal kindled mouse (fully expressed secondarily generalized seizure); conditions: i.p.; ref Rowley et al., manuscript in preparation; cited from earlier work
[2] = system: CF-1 mice (seizures induced by 6 Hz corneal stimulation); conditions: cited from earlier work; for ED50, 6 Hz model, 32 mA (95% confidence interval) / ED50, 6 Hz model, 44 mA (95% confidence interval): ref Barton et al., 2001[19]
[3] = system: non-galanin receptors (5-HT-1A and 1B, D2 dopamine, ghrelin, melanocortin, NPY, μ-opioid receptors); conditions: at 10 μM, NPY (galnon only), μ-opioid (galmic only); cited from earlier work
[4] = system: galanin receptors GalR1 and GalR2; conditions: cited from earlier work; for Fold difference in affinity for GalR1 and GalR2: receptor subtype specificity
[5] = system: CF-1 mice (seizures induced by 6 Hz corneal stimulation); assay: 6 Hz psychomotor seizure test; assay type: in vivo, mouse; conditions: 4 mg/kg i.p.

In the case of NC(=O)N1c2ccccc2C=Cc2ccccc21 [CBZ, carbamazepine], the “Active dose in corneal kindled mouse model” value [1] is given as 33 mg/kg.

In the case of O=C1NC(=O)C(c2ccccc2)(c2ccccc2)N1 [Phenytoin, phenytoin], the “ED50, 6 Hz model, 32 mA (95% confidence interval)” value ([2]; i.p., 32 mA) is listed as greater than 60 mg/kg and the “ED50, 6 Hz model, 44 mA (95% confidence interval)” value ([2]; i.p.) is listed as greater than 60 mg/kg.

In the case of CCC1(C)CC(=O)NC1=O (centres unmarked) [Ethosuximide, ethosuximide], the “ED50, 6 Hz model, 44 mA (95% confidence interval)” value ([2]; i.p.) is given as greater than 600 mg/kg.

For Nc1nnc(-c2cccc(Cl)c2Cl)c(N)n1 [Lamotrigine, lamotrigine], the “ED50, 6 Hz model, 32 mA (95% confidence interval)” value ([2]; i.p., 32 mA) is listed as greater than 60 mg/kg and the “ED50, 6 Hz model, 44 mA (95% confidence interval)” value ([2]; i.p.) is listed as greater than 60 mg/kg.

In the case of COC[C@@H](NC(C)=O)C(=O)NCc1ccccc1 [Lacosamide], the ED50 ([2]; read-out: ED50, 6 Hz model, 32 mA (95% confidence interval), i.p., 32 mA, ref Stöhr et al., 2007[44]) is listed as 9.9 mg/kg.

In the case of Cc1cc(=O)oc2cc(NC(=O)[C@H](CCCCN)NC(=O)[C@H](CC3CCCCC3)NC(=O)OCC3c4ccccc4-c4ccccc43)ccc12 [galnon] (Fmoc-[Cha]-Lys-{AMC}), the “Interaction with non-galanin receptors” value [3] is given as “interact with a variety of non-galanin receptors”, the “Fold lower affinity for galanin receptors relative to the native peptide” value [4] is given as 10,000-100,000 fold and the “Fold difference in affinity for GalR1 and GalR2” value [4] is given as 2-3 fold.

For GWTLNSAGYLLGPHAV-NH2 [Gal(1-16)], the “Activity in 6 Hz 32 mA model (in words)” value ([2]; 4 mg/kg i.p., 32 mA, ref Bulaj et al, 2008.[17]) is listed as “inactive”.

In the case of COC(=O)[C@H](CCCCN)NC(=O)[C@]1(C)NC(=O)c2nc(oc2C)[C@](C)(C(=O)NC2c3ccccc3-c3ccccc32)NC(=O)c2nc(oc2C)[C@](C)(C(=O)NCC2CCCCC2)NC(=O)c2nc1oc2C [galmic], the “Interaction with non-galanin receptors” value [3] is listed as “interact with a variety of non-galanin receptors”, the “Fold lower affinity for galanin receptors relative to the native peptide” value [4] is listed as 10,000-100,000 fold and the “Fold difference in affinity for GalR1 and GalR2” value [4] is listed as 2-3 fold.

For Ac-YLLGPKK(Lys-P)K [NAX 5055 truncated], the “Activity in 6 Hz 32 mA model (in words)” value ([5]; 32 mA, tested across time) was “inactive”, the “Mice protected from seizures / mice tested, 15′” value ([5]; 6 Hz 32 mA, CF-1 mice, 15 min, groups of four) was 0/4 and the “Mice protected from seizures / mice tested, 30′” value ([5]; 6 Hz 32 mA, CF-1 mice, 30 min, groups of four) was 0/4. The “Mice protected from seizures / mice tested, 60′” value ([5]; 6 Hz 32 mA, CF-1 mice, 60 min, groups of four) was 0/4, the “Mice protected from seizures / mice tested, 120′” value ([5]; 6 Hz 32 mA, CF-1 mice, 120 min, groups of four) was 0/4 and the “Mice protected from seizures / mice tested, 240′” value ([5]; 6 Hz 32 mA, CF-1 mice, 240 min, groups of four) was 0/4.
